Drawing on BindingDB's records for doi:10.1016/j.bmcl.2015.11.098 (Janssen Pharmaceutica, 2016), this text covers EC50 for one compound.

The test has as its target Metabotropic glutamate receptor 5 (Homo sapiens, UniProt P41594). Description: Positive allosteric modulation of human mGlu5 expressed in HEK293 cells assessed as glutamate-induced calcium mobilization.

Sequence of Metabotropic glutamate receptor 5 (P41594 whole entry): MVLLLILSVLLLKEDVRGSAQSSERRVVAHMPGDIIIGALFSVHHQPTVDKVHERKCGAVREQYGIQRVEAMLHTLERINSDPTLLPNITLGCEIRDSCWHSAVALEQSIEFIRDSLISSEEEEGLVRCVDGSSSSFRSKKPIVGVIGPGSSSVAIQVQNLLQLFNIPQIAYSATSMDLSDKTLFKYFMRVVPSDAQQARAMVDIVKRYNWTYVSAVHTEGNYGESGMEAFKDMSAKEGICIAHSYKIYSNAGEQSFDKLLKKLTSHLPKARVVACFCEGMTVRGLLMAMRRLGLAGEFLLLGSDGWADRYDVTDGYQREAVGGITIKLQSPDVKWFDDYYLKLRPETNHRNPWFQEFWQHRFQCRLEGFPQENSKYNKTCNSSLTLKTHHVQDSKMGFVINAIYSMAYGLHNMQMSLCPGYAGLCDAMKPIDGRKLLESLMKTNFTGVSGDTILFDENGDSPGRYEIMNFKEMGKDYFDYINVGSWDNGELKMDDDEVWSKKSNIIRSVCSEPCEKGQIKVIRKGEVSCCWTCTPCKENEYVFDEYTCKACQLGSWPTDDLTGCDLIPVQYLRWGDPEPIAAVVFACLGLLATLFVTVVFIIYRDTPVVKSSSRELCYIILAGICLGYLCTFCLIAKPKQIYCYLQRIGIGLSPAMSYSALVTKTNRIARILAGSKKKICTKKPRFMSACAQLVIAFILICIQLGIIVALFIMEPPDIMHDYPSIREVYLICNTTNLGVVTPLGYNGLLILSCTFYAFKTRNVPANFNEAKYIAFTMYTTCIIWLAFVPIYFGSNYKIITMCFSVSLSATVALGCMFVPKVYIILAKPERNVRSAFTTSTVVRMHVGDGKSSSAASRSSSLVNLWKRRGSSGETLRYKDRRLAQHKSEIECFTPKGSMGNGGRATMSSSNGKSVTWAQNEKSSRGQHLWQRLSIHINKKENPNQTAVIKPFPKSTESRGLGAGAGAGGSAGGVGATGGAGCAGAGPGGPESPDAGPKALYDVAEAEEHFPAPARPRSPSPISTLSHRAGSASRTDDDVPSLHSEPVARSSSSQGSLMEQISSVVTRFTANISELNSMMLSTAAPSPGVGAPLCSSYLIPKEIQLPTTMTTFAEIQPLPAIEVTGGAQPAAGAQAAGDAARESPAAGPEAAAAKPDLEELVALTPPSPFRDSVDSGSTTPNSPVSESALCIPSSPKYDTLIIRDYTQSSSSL

For `O=C1c2nc(COc3ccccc3)nn2CCN1c1ccc(F)cc1`, the EC50 amounted to 2810 nM.
